Laboratory results taken from ChEMBL document CHEMBL1136490, “Synthesis of non-immunosuppressive cyclophilin-Binding cyclosporin A derivatives as potential anti-HIV-1 drugs” (Bioorg Med Chem Lett, 2003).

Tests used:
[1] = biological target: Peptidyl-prolyl cis-trans isomerase A (Homo sapiens, UniProt P62937); test: Immunosuppressive activity was measured by inhibition of the IL-2 production in Jurkat cells.; assay type: functional, cell-based
[2] = biological target: Human immunodeficiency virus type 1 reverse transcriptase (Human immunodeficiency virus 1, UniProt Q72547); test: In vitro inhibitory activity against HIV-1 RT in CEM4 cell line; assay type: cell-based

Chain of Peptidyl-prolyl cis-trans isomerase A (P62937 whole entry): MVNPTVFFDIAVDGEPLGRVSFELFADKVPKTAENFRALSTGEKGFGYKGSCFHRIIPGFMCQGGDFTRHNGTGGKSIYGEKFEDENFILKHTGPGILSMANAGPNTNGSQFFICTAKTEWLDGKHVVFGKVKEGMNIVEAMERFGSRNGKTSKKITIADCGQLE

SMILES	IC50 [1] [nM]	IC50 [2] [nM]
C/C=C/C[C@@H](C)[C@@H](O)[C@H]1C(=O)N[C@@H](CC)C(=O)N(C)[C@H](SCCN(CC)CC)C(=O)N(C)[C@@H](CC(C)C)C(=O)N[C@@H](C(C)C)C(=O)N(C)[C@@H](CC(C)C)C(=O)N[C@@H](C)C(=O)N[C@H](C)C(=O)N(C)[C@@H](CC(C)C)C(=O)N(C)[C@@H](CC(C)C)C(=O)N(C)[C@@H](C(C)C)C(=O)N1C	15	2.5
C/C=C/C[C@@H](C)[C@@H](O)[C@H]1C(=O)N[C@@H](CC)C(=O)N(C)[C@H](SC)C(=O)N(C)[C@@H](CC(C)(C)O)C(=O)N[C@@H](C(C)C)C(=O)N(C)[C@@H](CC(C)C)C(=O)N[C@@H](C)C(=O)N[C@H](C)C(=O)N(C)[C@@H](CC(C)C)C(=O)N(C)[C@@H](CC(C)C)C(=O)N(C)[C@@H](C(C)C)C(=O)N1C	110	84
C/C=C/C[C@@H](C)[C@@H](O)[C@H]1C(=O)N[C@@H](CC)C(=O)N(C)[C@H](SCCN(C)C)C(=O)N(C)[C@@H](CC(C)C)C(=O)N[C@@H](C(C)C)C(=O)N(C)[C@@H](CC(C)C)C(=O)N[C@@H](C)C(=O)N[C@H](C)C(=O)N(C)[C@@H](CC(C)C)C(=O)N(C)[C@@H](CC(C)C)C(=O)N(C)[C@@H](C(C)C)C(=O)N1C	47	35
C/C=C/C[C@@H](C)[C@@H](O)[C@H]1C(=O)N[C@@H](CC)C(=O)N(C)[C@H](SCCN2CCCCC2)C(=O)N(C)[C@@H](CC(C)(C)O)C(=O)N[C@@H](C(C)C)C(=O)N(C)[C@@H](CC(C)C)C(=O)N[C@@H](C)C(=O)N[C@H](C)C(=O)N(C)[C@@H](CC(C)C)C(=O)N(C)[C@@H](CC(C)C)C(=O)N(C)[C@@H](C(C)C)C(=O)N1C	882	19.5
C/C=C/C[C@@H](C)[C@@H](O)[C@H]1C(=O)N[C@@H](CC)C(=O)N(C)[C@H](SCCN(C)C(C)(C)C)C(=O)N(C)[C@@H](CC(C)(C)O)C(=O)N[C@@H](C(C)C)C(=O)N(C)[C@@H](CC(C)C)C(=O)N[C@@H](C)C(=O)N[C@H](C)C(=O)N(C)[C@@H](CC(C)C)C(=O)N(C)[C@@H](CC(C)C)C(=O)N(C)[C@@H](C(C)C)C(=O)N1C	1570	43
C/C=C/C[C@@H](C)[C@@H](O)[C@H]1C(=O)N[C@@H](CC)C(=O)N(C)[C@H](SCCN(C)C(C)C)C(=O)N(C)[C@@H](CC(C)C)C(=O)N[C@@H](C(C)C)C(=O)N(C)[C@@H](CC(C)C)C(=O)N[C@@H](C)C(=O)N[C@H](C)C(=O)N(C)[C@@H](CC(C)C)C(=O)N(C)[C@@H](CC(C)C)C(=O)N(C)[C@@H](C(C)C)C(=O)N1C	61	19.5
C/C=C/C[C@@H](C)[C@@H](O)[C@H]1C(=O)N[C@@H](CC)C(=O)N(C)[C@H](SCCN(C)C(C)(C)C)C(=O)N(C)[C@@H](CC(C)C)C(=O)N[C@@H](C(C)C)C(=O)N(C)[C@@H](CC(C)C)C(=O)N[C@@H](C)C(=O)N[C@H](C)C(=O)N(C)[C@@H](CC(C)C)C(=O)N(C)[C@@H](CC(C)C)C(=O)N(C)[C@@H](C(C)C)C(=O)N1C	277	24
C/C=C/C[C@@H](C)[C@@H](O)[C@H]1C(=O)N[C@@H](CC)C(=O)N(C)[C@H](SCCO)C(=O)N(C)[C@@H](CC(C)(C)O)C(=O)N[C@@H](C(C)C)C(=O)N(C)[C@@H](CC(C)C)C(=O)N[C@@H](C)C(=O)N[C@H](C)C(=O)N(C)[C@@H](CC(C)C)C(=O)N(C)[C@@H](CC(C)C)C(=O)N(C)[C@@H](C(C)C)C(=O)N1C	959	80
C/C=C/C[C@@H](C)[C@@H](O)[C@H]1C(=O)N[C@@H](CC)C(=O)N(C)[C@H](SC)C(=O)N(C)[C@@H](CC(C)C)C(=O)N[C@@H](C(C)C)C(=O)N(C)[C@@H](CC(C)C)C(=O)N[C@@H](C)C(=O)N[C@H](C)C(=O)N(C)[C@@H](CC(C)C)C(=O)N(C)[C@@H](CC(C)C)C(=O)N(C)[C@@H](C(C)C)C(=O)N1C	3	65.5
C/C=C/C[C@@H](C)[C@@H](O)[C@H]1C(=O)N[C@@H](CC)C(=O)N(C)[C@H](SCCN2CCCCC2)C(=O)N(C)[C@@H](CC(C)C)C(=O)N[C@@H](C(C)C)C(=O)N(C)[C@@H](CC(C)C)C(=O)N[C@@H](C)C(=O)N[C@H](C)C(=O)N(C)[C@@H](CC(C)C)C(=O)N(C)[C@@H](CC(C)C)C(=O)N(C)[C@@H](C(C)C)C(=O)N1C	97	72
C/C=C/C[C@@H](C)[C@@H](O)[C@H]1C(=O)N[C@@H](CC)C(=O)N(C)[C@H](SCCO)C(=O)N(C)[C@@H](CC(C)C)C(=O)N[C@@H](C(C)C)C(=O)N(C)[C@@H](CC(C)C)C(=O)N[C@@H](C)C(=O)N[C@H](C)C(=O)N(C)[C@@H](CC(C)C)C(=O)N(C)[C@@H](CC(C)C)C(=O)N(C)[C@@H](C(C)C)C(=O)N1C	19	70
C/C=C/C[C@@H](C)[C@@H](O)[C@H]1C(=O)N[C@@H](CC)C(=O)N(C)[C@H](SCCN(CC)CC)C(=O)N(C)[C@@H](CC(C)(C)O)C(=O)N[C@@H](C(C)C)C(=O)N(C)[C@@H](CC(C)C)C(=O)N[C@@H](C)C(=O)N[C@H](C)C(=O)N(C)[C@@H](CC(C)C)C(=O)N(C)[C@@H](CC(C)C)C(=O)N(C)[C@@H](C(C)C)C(=O)N1C	6050	47
C/C=C/C[C@@H](C)[C@@H](O)[C@H]1C(=O)N[C@@H](CC)C(=O)N(C)CC(=O)N(C)[C@@H](C[C@@H](C)CC)C(=O)N[C@@H](C(C)C)C(=O)N(C)[C@@H](CC(C)C)C(=O)N[C@@H](C)C(=O)N[C@H](C)C(=O)N(C)[C@@H](CC(C)C)C(=O)N(C)[C@@H](CC(C)C)C(=O)N(C)[C@@H](C(C)C)C(=O)N1C	934	293
C/C=C/C[C@@H](C)[C@@H](O)[C@H]1C(=O)N[C@@H](CC)C(=O)N(C)[C@H](SCCn2ccnc2)C(=O)N(C)[C@@H](CC(C)C)C(=O)N[C@@H](C(C)C)C(=O)N(C)[C@@H](CC(C)C)C(=O)N[C@@H](C)C(=O)N[C@H](C)C(=O)N(C)[C@@H](CC(C)C)C(=O)N(C)[C@@H](CC(C)C)C(=O)N(C)[C@@H](C(C)C)C(=O)N1C	165	80.5
C/C=C/C[C@@H](C)[C@@H](O)[C@H]1C(=O)N[C@@H](CC)C(=O)N(C)[C@H](SCCN2CCOCC2)C(=O)N(C)[C@@H](CC(C)C)C(=O)N[C@@H](C(C)C)C(=O)N(C)[C@@H](CC(C)C)C(=O)N[C@@H](C)C(=O)N[C@H](C)C(=O)N(C)[C@@H](CC(C)C)C(=O)N(C)[C@@H](CC(C)C)C(=O)N(C)[C@@H](C(C)C)C(=O)N1C	128	101
C/C=C/C[C@@H](C)[C@@H](O)[C@H]1C(=O)N[C@@H](CC)C(=O)N(C)[C@H](CO)C(=O)N(C)[C@@H](CC(C)(C)O)C(=O)N[C@@H](C(C)C)C(=O)N(C)[C@@H](CC(C)C)C(=O)N[C@@H](C)C(=O)N[C@H](C)C(=O)N(C)[C@@H](CC(C)C)C(=O)N(C)[C@@H](CC(C)C)C(=O)N(C)[C@@H](C(C)C)C(=O)N1C	783	–
C/C=C/C[C@@H](C)[C@@H](O)C1C(=O)N[C@@H](CC)C(=O)N(C)[C@H](CO)C(=O)N(C)[C@@H](CC(C)(C)O)C(=O)N[C@@H](C(C)C)C(=O)N(C)[C@@H](CC(C)C)C(=O)N[C@@H](C)C(=O)N[C@H](C)C(=O)N(C)[C@@H](CC(C)C)C(=O)N(C)[C@@H](CC(C)C)C(=O)N(C)[C@@H](C(C)C)C(=O)N1C (stereo not given in full)	–	95
C/C=C/C[C@@H](C)[C@@H](O)[C@H]1C(=O)N[C@@H](CC)C(=O)N(C)CC(=O)N(C)[C@@H](CC(C)(C)O)C(=O)N[C@@H](C(C)C)C(=O)N(C)[C@@H](CC(C)C)C(=O)N[C@@H](C)C(=O)N[C@H](C)C(=O)N(C)[C@@H](CC(C)C)C(=O)N(C)[C@@H](CC(C)C)C(=O)N(C)[C@@H](C(C)C)C(=O)N1C	166	–
C/C=C/C[C@@H](C)[C@@H](O)C1C(=O)N[C@@H](CC)C(=O)N(C)CC(=O)N(C)[C@@H](CC(C)(C)O)C(=O)N[C@@H](C(C)C)C(=O)N(C)[C@@H](CC(C)C)C(=O)N[C@@H](C)C(=O)N[C@H](C)C(=O)N(C)[C@@H](CC(C)C)C(=O)N(C)[C@@H](CC(C)C)C(=O)N(C)[C@@H](C(C)C)C(=O)N1C (stereo not given in full)	–	138
C/C=C/C[C@@H](C)[C@@H](O)[C@H]1C(=O)N[C@@H](CC)C(=O)N(C)[C@H](SCCN(C)C)C(=O)N(C)[C@@H](CC(C)(C)O)C(=O)N[C@@H](C(C)C)C(=O)N(C)[C@@H](CC(C)C)C(=O)N[C@@H](C)C(=O)N[C@H](C)C(=O)N(C)[C@@H](CC(C)C)C(=O)N(C)[C@@H](CC(C)C)C(=O)N(C)[C@@H](C(C)C)C(=O)N1C [SCY 635]	–	45
